Values after ≈ are worked out from the molar mass of the structure shown. Read-outs that look alike come from different tables or passages of the source.
What was measured:
Assay type in all cases: cell-based
[1] = system: Staphylococcus aureus MMX 3265, 3270, 3278, and 6312; conditions: for Cell counts (mean): 1 used if no colonies
Procedure: Each test agent stock solution was prepared at 100× the final desired test concentration for the spontaneous mutation frequency assay agar plates.
The drug/agar mixture was dispensed into sterile 150×15 mm plates (BD Falcon) to a volume of 50 mL in each plate. The target inoculum for each spontaneous mutation plate was at least 10^9 CFU. Plates were allowed to solidify at room temperature.
The inocula for the spontaneous mutation frequency assay were prepared by using sterile cotton swabs to harvest colonies from freshly grown isolates and preparing a dense cell suspension (approximately 1.70 on the turbidity meter) in 6 mL of CAMHB. The viable count of this suspension was determined by plating serial ten-fold dilutions onto MHA and taking the average of duplicate counts. For the spontaneous mutation assay, 0.25 mL of inoculum was spread onto the surface of duplicate 150×15 mm plates for each drug concentration tested, allowed to dry, and then the plates were inverted and incubated at 35° C. for 48 hr prior to counting viable colonies. The spontaneous mutation frequency was calculated using the following equation:
Spontaneous mutation frequency=average number of colonies on selected plates/total number of cells incubated onto each plate
If there were no colonies on the antibiotic selection plates, the spontaneous mutation frequency was reported as less than or equal to the mutation frequency that would have resulted from the presence of one colony (e.g. 1/total number of cells inoculated onto the plate).

[2] = system: Staphylococcus aureus ATCC 29213; assay: MIC measured by fluid broth microdilution method (quality control); conditions: ATCC29213
[3] = system: methicillin-resistant Staphylococcus aureus (MRSA) isolates; assay: MIC measured by agar dilution method (CLSI); conditions: Staphylococcus aureus, MRSA, agar dilution
Procedure: (§1) Spontaneous mutation and minimal inhibit concentration (MIC) tested by agar dilution method, the above compounds are respectively prepared into a stock solution (100X) with a concentration 100 times the highest final concentration in corresponding solvents and used on the same day. Before use, I is further diluted with DMSO; and oxacillin, rifampicin and levofloxacin are further diluted with water.
(§2) Bacterial isolates: Staphylococcus aureus isolates are retrieved from the −80° C. storage room of Micromyx Culture Collection, thawed, plated onto Tryptic Soy Agar+5% sheep blood (Remel; Lenexa, Kans.), and then incubated aerobically at 35° C. overnight. S. aureus ATCC 29213 (MRSA; MMX 0100) was included during testing only for the purpose of quality control. Test Media: The isolates were tested in both the agar dilution MIC assay and the spontaneous mutation assay using Mueller-Hinton Agar (MHA; BD/BBL; Lot No. 6229829 & 4216798). Inocula of each isolate were suspended in cation-adjusted Mueller-Hinton Broth (CAMHB) (BD/BBL; Lot Nos. 5257869 & 6258541). Sodium chloride (Sigma-Aldrich; Lot No. SLBL0434V) was added to CAMHB at a final concentration of 2% when testing oxacillin. Dilutions of bacterial cell suspensions for the purpose of performing colony counts were also made in CAMHB.
(§3) MIC measured by agar dilution method: according to the recommendation from the Clinical and Laboratory Standards Institute (CLSI), the MIC value is measured by the agar dilution method. […] Each test agent was combined with molten MHA agar (50-55° C.) at a ratio of 0.2 mL of 100× test agent to 19.8 mL agar in a sterile tube, mixed gently, and then poured into a sterile petri plate (BD Falcon). Plates were allowed to solidify at room temperature. A 0.5 McFarland standard bacterial suspension was prepared, diluted 1:10 in CAMHB, and transferred to the wells of a stainless steel replicator block before stamping onto plates containing drug, resulting in 10^4 CFU/spot. After allowing the inoculum to dry on the surface of the agar, the plates were inverted, incubated aerobically at 35° C. for 20-24 hr, and inspected for growth.

[4] = system: Staphylococcus aureus ATCC 29213; assay: MIC measured by agar dilution method, quality control strain; conditions: strain 100, MSSA QC strain
Procedure: as §1, §2, §3
In parallel experiments, a standard bacterium suspension with a […] turbidity of 0.5 is prepared as a standard inoculum for agar dilution analysis (10^4 CFU/point). […] In this step, the broths and drugs used in the spontaneous mutation analysis are used to confirm that the concentration of the drug stock solution can inhibit the growth of the standard inoculum. The quality of the levofloxacin stock solution is controlled by a standard inoculum and levofloxacin of 8-0.008 μg/mL, and separate agar dilution analysis is performed. […]

[5] = isolate 3265 LEV^R RIF^S, drug 0.5 μg/mL in plates (combination 0.5 each), inoculation 5.40E+09 CFU
[6] = isolate 3265 LEV^R RIF^S, drug 2 μg/mL in plates (combination 2 each), inoculation 5.40E+09 CFU
[7] = isolate 3265 LEV^R RIF^S, drug 8 μg/mL in plates (combination 8 each), inoculation 5.40E+09 CFU
[8] = isolate 3270 LEV^R RIF^S, drug 0.5 μg/mL in plates (combination 0.5 each), inoculation 5.30E+09 CFU
[9] = isolate 3270 LEV^R RIF^S, drug 2 μg/mL in plates (combination 2 each), inoculation 5.30E+09 CFU
[10] = isolate 3270 LEV^R RIF^S, drug 8 μg/mL in plates (combination 8 each), inoculation 5.30E+09 CFU
[11] = isolate 3278 LEV^S RIF^S, drug 0.5 μg/mL in plates (combination 0.5 each), inoculation 3.80E+09 CFU
[12] = isolate 3278 LEV^S RIF^S, drug 2 μg/mL in plates (combination 2 each), inoculation 3.80E+09 CFU
[13] = isolate 3278 LEV^S RIF^S, drug 8 μg/mL in plates (combination 8 each), inoculation 3.80E+09 CFU
[14] = isolate 6312 LEV^R RIF^S, drug 0.5 μg/mL in plates (combination 0.5 each), inoculation 3.90E+09 CFU
[15] = isolate 6312 LEV^R RIF^S, drug 2 μg/mL in plates (combination 2 each), inoculation 3.90E+09 CFU
[16] = isolate 6312 LEV^R RIF^S, drug 8 μg/mL in plates (combination 8 each), inoculation 3.90E+09 CFU

CO[C@H]1/C=C/O[C@@]2(C)Oc3c(C)c(O)c4c(O)c(c(/C=N/N5CCN(C)CC5)c(O)c4c3C2=O)NC(=O)/C(C)=C\C=C\[C@H](C)[C@H](O)[C@@H](C)[C@@H](O)[C@@H](C)[C@H](OC(C)=O)[C@@H]1C [Rifampicin]
Cell counts (mean) ([1]; isolate 3265, drug 0.5 μg/mL): 55 | Cell counts (mean) ([1]; isolate 3265, drug 2 μg/mL): 29 | Cell counts (mean) ([1]; isolate 3265, drug 8 μg/mL): 36 | Cell counts plate A [1, 5]: 52 | Cell counts plate B [1, 5]: 57 | Mutation frequency [1, 5]: 1.01E−08 | Cell counts plate A [1, 6]: 27 | Cell counts plate B [1, 6]: 30 | Mutation frequency [1, 6]: 5.28E−09 | Cell counts plate A [1, 7]: 43 | Cell counts plate B [1, 7]: 29 | Mutation frequency [1, 7]: 6.67E−09 | Cell counts (mean) ([1]; isolate 3270, drug 0.5 μg/mL): 83 | Cell counts (mean) ([1]; isolate 3270, drug 2 μg/mL): 49 | Cell counts (mean) ([1]; isolate 3270, drug 8 μg/mL): 43 | Cell counts plate A [1, 8]: 93 | Cell counts plate B [1, 8]: 73 | Mutation frequency [1, 8]: 1.57E−08 | Cell counts plate A [1, 9]: 44 | Cell counts plate B [1, 9]: 53 | Mutation frequency [1, 9]: 9.15E−09 | Cell counts plate A [1, 10]: 43 | Cell counts plate B [1, 10]: 42 | Mutation frequency [1, 10]: 8.02E−09 | Cell counts (mean) ([1]; isolate 3278, drug 0.5 μg/mL): 47 | Cell counts (mean) ([1]; isolate 3278, drug 2 μg/mL): 29 | Cell counts (mean) ([1]; isolate 3278, drug 8 μg/mL): 34 | Cell counts plate A [1, 11]: 49 | Cell counts plate B [1, 11]: 44 | Mutation frequency [1, 11]: 1.22E−08 | Cell counts plate A [1, 12]: 20 | Cell counts plate B [1, 12]: 37 | Mutation frequency [1, 12]: 7.50E−09 | Cell counts plate A [1, 13]: 34 | Cell counts plate B [1, 13]: 33 | Mutation frequency [1, 13]: 8.82E−09 | Cell counts (mean) ([1]; isolate 6312, drug 0.5 μg/mL): 32 | Cell counts (mean) ([1]; isolate 6312, drug 2 μg/mL): 29 | Cell counts (mean) ([1]; isolate 6312, drug 8 μg/mL): 34 | Cell counts plate A [1, 14]: 34 | Cell counts plate B [1, 14]: 29 | Mutation frequency [1, 14]: 8.08E−09 | Cell counts plate A [1, 15]: 36 | Cell counts plate B [1, 15]: 22 | Mutation frequency [1, 15]: 7.44E−09 | Cell counts plate A [1, 16]: 38 | Cell counts plate B [1, 16]: 29 | Mutation frequency [1, 16]: 8.59E−09 | MIC [2]: 0.008 µg/mL (≈ 0.00972 µM) | MIC ([3]; strain 3085, LEV^S RIF^S): 0.015 µg/mL (≈ 0.0182 µM) | MIC ([3]; strain 3090, LEV^R RIF^S): 0.008 µg/mL (≈ 0.00972 µM) | MIC ([3]; strain 3094, LEV^R RIF^S): 0.015 µg/mL (≈ 0.0182 µM) | MIC ([3]; strain 3098, LEV^S RIF^S): 0.015 µg/mL (≈ 0.0182 µM) | MIC ([3]; strain 3265, LEV^R RIF^S): 0.008 µg/mL (≈ 0.00972 µM) | MIC ([3]; strain 3266, LEVR RIFS): 0.008 µg/mL (≈ 0.00972 µM) | MIC ([3]; strain 3270, LEV^R RIF^S): 0.015 µg/mL (≈ 0.0182 µM) | MIC ([3]; strain 3271, LEV^R RIF^S): 0.015 µg/mL (≈ 0.0182 µM) | MIC ([3]; strain 3277, LEV^S RIF^S): 0.015 µg/mL (≈ 0.0182 µM) | MIC ([3]; strain 3278, LEV^S RIF^S): 0.015 µg/mL (≈ 0.0182 µM) | MIC ([3]; strain 6312, LEV^R RIF^S): 0.015 µg/mL (≈ 0.0182 µM) | MIC ([3]; strain 6313, LEV^R RIF^S): 0.015 µg/mL (≈ 0.0182 µM) | MIC ([3]; strain 6315, LEV^R RIF^S): 0.015 µg/mL (≈ 0.0182 µM) | MIC ([3]; strain 6498, LEV^R RIF^S): 0.015 µg/mL (≈ 0.0182 µM) | MIC ([3]; strain 6501, LEV^R RIF^S): 0.015 µg/mL (≈ 0.0182 µM) | MIC ([3]; strain 6505, LEV^R RIF^S): 0.015 µg/mL (≈ 0.0182 µM) | MIC ([3]; strain 7771, LEV^R RIF^S): 0.008 µg/mL (≈ 0.00972 µM) | MIC ([3]; strain 7772, LEV^S RIF^S): 0.015 µg/mL (≈ 0.0182 µM) | MIC ([3]; strain 7773, LEV^R RIF^S): 0.015 µg/mL (≈ 0.0182 µM) | MIC ([3]; strain 7774, LEV^R RIF^S): 0.015 µg/mL (≈ 0.0182 µM) | MIC ([3]; strain 7775, LEV^R): 0.015 µg/mL (≈ 0.0182 µM) | MIC [4]: 0.015 µg/mL (≈ 0.0182 µM)
